Test results taken from patent US7273848B2, “Apolipoprotein A-I agonists and their use to treat dyslipidemic disorders” (priority 1997, dated 2007).
Non-standard residues stand in square brackets, D forms with d. Residues, ends and D or L forms follow the SMILES beside them. No end group written: not given here. Aib = CC(C)(N)C(=O)O

Target: T1, LCAT (purified from human plasma) (Homo sapiens, UniProt P04180)
T1 construct: from tissue; host or cells: human plasma
T1 sequence (P04180 25-440): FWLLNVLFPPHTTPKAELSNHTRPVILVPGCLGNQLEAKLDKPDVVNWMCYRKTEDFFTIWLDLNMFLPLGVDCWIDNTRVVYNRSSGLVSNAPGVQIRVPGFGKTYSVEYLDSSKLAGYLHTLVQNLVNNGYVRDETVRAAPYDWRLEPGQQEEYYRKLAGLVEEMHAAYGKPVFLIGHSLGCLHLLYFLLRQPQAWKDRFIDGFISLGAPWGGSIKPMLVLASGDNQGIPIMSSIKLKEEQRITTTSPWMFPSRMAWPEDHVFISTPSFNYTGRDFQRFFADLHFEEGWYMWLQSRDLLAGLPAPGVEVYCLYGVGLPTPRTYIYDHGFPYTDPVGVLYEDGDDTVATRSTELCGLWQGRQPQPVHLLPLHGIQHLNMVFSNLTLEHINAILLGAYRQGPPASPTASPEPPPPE
Assay: LCAT activation assay
Type: biochemical
Conditions: LCAT activation as compared with native human ApoA-I (= 100%), equivalent masses
Protocol: The peptides synthesized as described in Section 6, supra, were analyzed in vitro for their ability to activate LCAT. In the LCAT assay, substrate vesicles (small unilamellar vesicles or “SUVs”) composed of egg phophatidylcholine (EPC) or 1-Palmitoyl-2-oleyl-phosphatidyl-choline (POPC) and radiolabelled cholesterol are preincubated with equivalent masses either of peptide or ApoA-I (isolated from human plasma). The reaction is initiated by addition of LCAT (purified from human plasma). Native ApoA-I, which was used as positive control, represents 100% activation activity. “Specific activity” (i.e., units of activity (LCAT activation)/unit of mass) of the peptides can be calculated as the concentration of peptide that achieves maximum LCAT activation. For example, a series of concentrations of the peptide (e.g., a limiting dilution) can be assayed to determine the “specific activity” for the peptide—the concentration which achieves maximal LCAT activation (i.e., percentage conversion of cholesterol to cholesterol ester) at a specific timepoint in the assay (e.g., 1 hr.). When plotting percentage conversion of cholesterol at, e.g., 1 hr., against the concentration of peptide used, the “specific activity” can be identified as the concentration of peptide that achieves a plateau on the plotted curve.
The vesicles used in the LCAT assay are SUVs composed of egg phosphatidylcholine (EPC) or 1-palmitoyl-2-oleyl-phosphatidylcholine (POPC) and cholesterol with a molar ratio of 20:1. To prepare a vesicle stock solution sufficient for 40 assays, 7.7 mg EPC (or 7.6 mg POPC; 10 μmol), 78 μg (0.2 μmol) 4-^14C-cholesterol, 116 μg cholesterol (0.3 μmol) are dissolved in 5 ml xylene and lyophilized. Thereafter 4 ml of assay buffer is added to the dry powder and sonicated under nitrogen atmosphere at 4° C. Sonication conditions: Branson 250 sonicator, 10 mm tip, 6×5 minutes; Assay buffer: 10 mM Tris, 0.14 M NaCl, 1 mM EDTA, pH 7.4). The sonicated mixture is centrifuged 6 times for 5 minutes each time at 14,000 rpm (16,000×g) to remove titanium particles. The resulting clear solution is used for the enzyme assay.
For the LCAT purification, dextran sulfate/Mg^2+ treatment of human plasma is used to obtain lipoprotein deficient serum (LPDS), which is sequentially chromatographed on Phenylsepharose, Affigelblue, ConcanavalinA sepharose and anti-ApoA-I affinity chromatography, as summarized for a representative purification in TABLE IX, below: […]

Compared with PVLELFENLLERLLDLLQKKLK [compound 165], PVLELFLNLLERLLDALQKKLK [compound 156] is higher in “ACTIVITY (%) LCAT” value: 23% for the first, 35% for the second.

`CC(C)C[C@H](NC(=O)[C@H](C)NC(=O)[C@H](CCC(=O)O)NC(=O)C(C)(C)NC(=O)C(C)(C)NC(=O)[C@H](CCC(=O)O)NC(=O)[C@H](CC(N)=O)NC(=O)[C@H](CC(C)C)NC(=O)[C@H](CCCCN)NC(=O)[C@H](CCC(=O)O)NC(=O)[C@H](CCCNC(=N)N)NC(=O)[C@H](Cc1ccccc1)NC(=O)[C@H](CCC(=O)O)NC(=O)[C@H](CC(=O)O)NC(=O)[C@H](CC(C)C)NC(=O)[C@@H](NC(=O)[C@@H]1CCCN1)C(C)C)C(=O)N[C@@H](CCCCN)C(=O)N[C@@H](CCC(N)=O)C(=O)N[C@@H](CCCCN)C(=O)N[C@@H](CC(C)C)C(=O)N[C@@H](CCCCN)C(=O)O` [compound 110, PVLDEFREKLNEXXEALKQKLK] (H-PVLDEFREKLNE[Aib][Aib]EALKQKLK-OH) and “Ac-PVLDLFRELLEEGKQKLK-NH2 [compound 229]” are the same in “ACTIVITY (%) LCAT” value: 0% for the first, 0% for the second.

First: CC(C)C[C@H](NC(=O)[C@H](C)NC(=O)[C@H](CCC(=O)O)NC(=O)[C@H](CC(C)C)NC(=O)C(C)(C)NC(=O)[C@H](CCCCN)NC(=O)[C@H](CC(N)=O)NC(=O)[C@H](CC(C)C)NC(=O)[C@H](CCCCN)NC(=O)[C@H](CCC(=O)O)NC(=O)[C@H](CCCNC(=N)N)NC(=O)[C@H](Cc1ccccc1)NC(=O)[C@H](CCC(=O)O)NC(=O)[C@H](CC(=O)O)NC(=O)[C@H](CC(C)C)NC(=O)[C@@H](NC(=O)[C@@H]1CCCN1)C(C)C)C(=O)N[C@@H](CCCCN)C(=O)N[C@@H](CCC(N)=O)C(=O)N[C@@H](CCCCN)C(=O)N[C@@H](CC(C)C)C(=O)N[C@@H](CCCCN)C(=O)O [compound 77, PVLDEFREKLNKXLEALKQKLK] (H-PVLDEFREKLNK[Aib]LEALKQKLK-OH)
Second: CC(C)C[C@H](NC(=O)[C@H](C)NC(=O)[C@H](CCC(=O)O)NC(=O)[C@H](CC(C)C)NC(=O)C(C)(C)NC(=O)[C@H](CCC(=O)O)NC(=O)[C@H](CC(N)=O)NC(=O)[C@H](CC(C)C)NC(=O)[C@H](CCCCN)NC(=O)[C@H](CCC(=O)O)NC(=O)[C@H](CCCNC(=N)N)NC(=O)[C@H](Cc1ccccc1)NC(=O)[C@H](CCC(=O)O)NC(=O)[C@H](CC(=O)O)NC(=O)[C@H](CC(C)C)NC(=O)[C@H](Cc1c[nH]cn1)NC(=O)[C@@H]1CCCN1)C(=O)N[C@@H](CCCCN)C(=O)N[C@@H](CCC(N)=O)C(=O)N[C@@H](CCCCN)C(=O)N[C@@H](CC(C)C)C(=O)N[C@@H](CCCCN)C(=O)O [compound 116, PHLDEFREKLNEXLEALKQKLK] (H-PHLDEFREKLNE[Aib]LEALKQKLK-OH)
The “ACTIVITY (%) LCAT” value of the first is higher: 9% for the first, 0% for the second.

Going from PVLDLLRELLNELLEALKQKLK [compound 16] to “Ac-PLLELLKELLEELKQKLK-NH2 [compound 206]”, the “ACTIVITY (%) LCAT” value falls from 59% to 57%.

Going from PVLELFLNLLERLLDAWQKKLK [compound 184] to PVLDLFREKLNELLEALKQKLK [compound 33], the “ACTIVITY (%) LCAT” value rises from 4% to 33%.

Going from VVLDLFRELLNELLEALKQKLK [compound 53] to “Ac-PVLDLFREWLEELKQKLK-NH2 [compound 205]”, the “ACTIVITY (%) LCAT” value rises from 19% to 60%.

Compared with “Ac-PALELFKDLLEELRQRLK-NH2 [compound 208]”, PVLDAFRELLEALLQLKK [compound 222] is lower in “ACTIVITY (%) LCAT” value: 48% for the first, 8% for the second.

Going from PVLELFKELLEELKQKLK [compound 216] to “Ac-PVLELFKELLEELKQKLK-NH2 [compound 195]”, the “ACTIVITY (%) LCAT” value rises from 35% to 87%.

Compared with PVFELFENLLERLLDALQKKLK [peptide 152], PVLELFKELLQELLEALKQKLK [compound 17] is higher in “ACTIVITY (%) LCAT” value: 50% for the first, 59% for the second.

Compared with “Ac-PVLELLKELLEELKQKLK-NH2 [compound 207]”, `CC(C)C[C@H](NC(=O)[C@H](C)NC(=O)[C@H](CCC(=O)O)NC(=O)[C@H](CC(C)C)NC(=O)C(C)(C)NC(=O)[C@H](CCC(=O)O)NC(=O)[C@H](CC(N)=O)NC(=O)[C@H](CC(C)C)NC(=O)[C@H](CCCCN)NC(=O)[C@H](CCC(=O)O)NC(=O)[C@H](CCCNC(=N)N)NC(=O)[C@H](Cc1ccccc1)NC(=O)[C@H](CCC(=O)O)NC(=O)[C@H](CC(=O)O)NC(=O)[C@H](CC(C)C)NC(=O)[C@H](CCCCN)NC(=O)[C@@H]1CCCN1)C(=O)N[C@@H](CCCCN)C(=O)N[C@@H](CCC(N)=O)C(=O)N[C@@H](CCCCN)C(=O)N[C@@H](CC(C)C)C(=O)N[C@@H](CCCCN)C(=O)O` [compound 115, PKLDEFREKLNEXLEALKQKLK] (H-PKLDEFREKLNE[Aib]LEALKQKLK-OH) is lower in “ACTIVITY (%) LCAT” value: 50% for the first, 0% for the second.

First: PVLDLFRELLNELWQKLK [compound 219]
Second: PVLELFENLLERLLELLNKKLK [compound 175]
The “ACTIVITY (%) LCAT” value of the first is higher: 24% for the first, 13% for the second.

With “Ac-PALELFKDLLEELRQKLR-NH2 [compound 202]” the “ACTIVITY (%) LCAT” value was 70%.

Test system: not listed separately
Assay: Circular dichroism helicity determination
Type: physicochemical
Conditions: percent helicity; 5 μM peptide, 90% vol TFE, 37° C.
Protocol: Far UV circular dichroism spectra were recorded between 190 and 260 nm (in 0.5 nm or 0.2 nm increments) with a AVIV62DS spectrometer (AVIV Associates, Lakewood, N.J., USA) equipped with a thermoelectric cell holder and sample changer. The instrument was calibrated with (+)-10-[…]. Between one and three scans were collected for each sample, using 10 cm, 5 cm, 1 cm and 0.1 cm path length quartz Suprasil cells, respectively, for peptide concentrations of 10^−7 M to 10^−4 M. The bandwidth was fixed at 1.5 nm and the scan speed to 1s per wavelength step. The reported data are the mean of at least 2 or 3 independent measurements.
After background substraction, spectra were converted to molar ellipticity (θ) per residue in deg. […] dmol^−1. The peptide concentration was determined by amino acid analysis and also by absorption spectrometry on a Perkin Elmer Lambda 17 UV/Visible spectrophotometer when the peptide contained a chromophore (tryptophane, dansyl, naphtylalanine).
CD spectra were obtained with free, unbound peptide (5 μM in 5 mM phosphate buffer, pH 7.4); with peptide-SUV complexes (20:1 EPC:Chol., Ri=30 and Ri=50); with peptide-micelle complexes (1-myristoyl-2-hydroxy-sn-glycero-3-phosphatidyl choline, Ri=100); and with free, unbound peptide in the presence of 2,2,2-trifluoroethanol (TFE) (5 μM peptide, 90% vol TFE).
The SUVs were obtained by dispersing the lipids (10 mM, 20:1 EPC:Chol., Avanti Polar Lipids, AL) in phosphate buffer (5 mM, pH 7.4) with bubbling N2 for 5 min., followed by sonication (1.5 hr.) in a bath sonicator. The homogeneity of the preparation was checked by FPLC.
The micelles were obtained by dispersing the lipid (6 mM 1-myristoyl-2-hydroxy-sn-glycero-3-phosphatidyl choline, Avanti Polar Lipids, AL) in phosphate buffer (5 mM, pH 7.4) with bubbling N2 for 5 min., followed by vortexing.
To obtain the peptide-SUV complexes, SUVs were added to the peptide (5 μM in 5 mM phosphate buffer, pH 7.4) at a phospholipid-peptide molar ratio (Ri) of 30 or 50.
To obtain the peptide-micelle complexes, micelles were added to the peptide (5 μM in 5 mM phosphate buffer, pH 7.4) at a Ri of 100.
All spectra were recorded at 37° C.
The degree of helicity of the peptides in the various conditions was determined from the mean residue ellipticity at 222 nm (Chen et al., 1974, Biochemistry 13:3350-3359) or by comparing the CD spectra obtained to reference spectra available on databases (16 helical reference spectra from Provencher & Glockner, 1981, Biochemistry 20:33-37; denatured protein reference spectra from Venyaminov et al., 1993, Anal. Biochem. 214:17-24) using the CONTIN curve-fitting algorithm version 2DP, CD-1 pack (August 1982) (Provencher, 1982, Comput. Phys. Commun. 27:213-227, 229-242). Acceptable fit was determined using the statistical analysis methodology provided by the CONTIN algorithm. The error of all methods was ±5% helicity.

With “Ac-PVLDEFREKLNEELEALKQKLK-NH2 [peptide 75, reference compound]” the “He (%) TFE” value was 55%.

Same assay, conditions: percent helicity; free, unbound peptide 5 μM in 5 mM phosphate buffer, pH 7.4, 37° C.

With “Ac-PVLDEFREKLNEELEALKQKLK-NH2 [peptide 75, reference compound]” the “He (%) free” value was 18%.

Same assay, conditions: percent helicity; peptide-SUV complexes (20:1 EPC:Chol., Ri=30 and Ri=50), 37° C.

For “Ac-PVLDEFREKLNEELEALKQKLK-NH2 [peptide 75, reference compound]”, the “He (%) SUVs” value was 23%.

Same assay, conditions: percent helicity; peptide-micelle complexes, Ri=100, 37° C.

In the case of “Ac-PVLDEFREKLNEELEALKQKLK-NH2 [peptide 75, reference compound]”, the “He (%) mics” value is reported as 28%.
